Results: patent publication US20220370513A1, “COMPOSITION, ANTIOXIDANT AGENT, ANTISACCHARIFICATION AGENT, NEURITE OUTGROWTH PROMOTER, AND COGNITIVE FUNCTION IMPROVER” (YAMADA BEE COMPANY, INC., priority 2019, published 2022)

Assay: ORAC (oxygen radical absorption capacity) test
Assay type: biochemical
Conditions: Trolox equivalent
Method: The antioxidation capacity of the combination of propolis and each sample was verified by an oxygen radical absorption capacity (ORAC) test. The following samples were used.
Propolis: ethanol extract powder (Brazilian green propolis, containing arginine as an excipient)
Phosphatidylserine: synthetic product
Coffee fruit extract: water/ethanol extract powder
Gotu kola extract: water extract powder (containing less than 10% of maltodextrin as an excipient)
Each sample was dissolved in a 50% ethanol aqueous solution. […]
The obtained test solution was diluted with a 75 mM phosphate buffer and put into a 96-well plate, and a fluorescein solution was added thereto. When the 96-well plate was heated to 37° C., AAPH (2,2′-azobis(2-amidinopropane)dihydrochloride) was added, and the fluorescence intensity decay time was measured with a microplate reader every 5 minutes for 1.5 hours. A standard curve was created using Trolox as a standard reagent, and the antioxidation power of each sample was calculated as a Trolox equivalent (μmol TE/g).
In Table 1, the expected value is a sum of ORAC values of respective components alone in each combination. The rate of increase is a value obtained by multiplying a result obtained by dividing the measured value by the expected value by 100.

Phosphatidylserine
Single raw material ORAC: 12 μmol TE/g
